Reference: ChEMBL document CHEMBL5584347, “Development of Nitric Oxide Releasing Oxoisoaporphines with Antidepressant Activities by Simultaneously Regulating MAO-A and SERT” (J Med Chem, 2024)
Activity calls are given as the source filed them. No cut-off for these calls is given here.

Columns and labels:
[1] = Toxicity in C57 mouse assessed as effect on heart structure at 5 to 10 mg/kg administered continuously for 2 weeks by H and E staining based analysis; format: organism-based; settings: in vivo, 336 h, dose 5-10 mg/kg
[2] = Cytotoxicity against human SH-SY5Y cells incubated for 24 hrs by MTT assay; format: toxicity, cell-based
PC-12 = experiment: Neuroprotective activity against corticosterone-induced cell injury in rat PC-12 cells assessed as increase in cell viability at 0.1 to 1 uM incubated for 24 hrs by CCK8 assay; format: functional, cell-based; settings: dose 0.1-1 µM
[3] = Toxicity in C57 mouse assessed as effect on liver size at 5 to 10 mg/kg administered continuously for 2 weeks by H and E staining based analysis; format: organism-based; settings: in vivo, 336 h, dose 5-10 mg/kg
Mus musculus [4] = experiment: Antidepressant activity in chronic unpredictable mild stress induced depressive C57 mouse model assessed as increase in number of upright movements at 5 to 10 mg/kg administered continuously for 2 weeks post 5 weeks of chronic unpredictable mild stress by open field test; format: functional, organism-based; settings: dose 5-10 mg/kg
[5] = Cytotoxicity against human L02 cells incubated for 24 hrs by MTT assay; format: toxicity, cell-based
[6] = Toxicity in C57 mouse assessed as effect on kidney structure at 5 to 10 mg/kg administered continuously for 2 weeks by H and E staining based analysis; format: organism-based; settings: in vivo, 336 h, dose 5-10 mg/kg
[7] = Toxicity in C57 mouse assessed as effect on heart pathology at 5 to 10 mg/kg administered continuously for 2 weeks by H and E staining based analysis; format: organism-based; settings: in vivo, 336 h, dose 5-10 mg/kg
[8] = Toxicity in C57 mouse assessed as necrosis in lungs at 5 to 10 mg/kg administered continuously for 2 weeks by H and E staining based analysis; format: organism-based; settings: in vivo, 336 h, dose 5-10 mg/kg
Mus musculus [9] = experiment: Antidepressant activity in chronic unpredictable mild stress induced depressive C57 mouse model assessed as reduction in neuronal cell damage in hippocampus at 5 to 10 mg/kg administered continuously for 2 weeks post 5 weeks of chronic unpredictable mild stress by H and E staining based analysis; format: functional, organism-based; settings: dose 5-10 mg/kg
[10] = Toxicity in C57 mouse assessed as effect on kidney size at 5 to 10 mg/kg administered continuously for 2 weeks by H and E staining based analysis; format: organism-based; settings: in vivo, 336 h, dose 5-10 mg/kg
Mus musculus [11] = experiment: Antidepressant activity in chronic unpredictable mild stress induced depressive C57 mouse model assessed as decrease in SERT expression in brain at 5 to 10 mg/kg administered continuously for 2 weeks post 5 weeks of chronic unpredictable mild stress by Western blot analysis; format: functional, organism-based; settings: dose 5-10 mg/kg
Mus musculus [12] = experiment: Antidepressant activity in chronic unpredictable mild stress induced depressive C57 mouse model assessed as increase in nitric oxide content in brain at 5 to 10 mg/kg administered continuously for 2 weeks post 5 weeks of chronic unpredictable mild stress by absorbance based analysis; format: functional, organism-based; settings: dose 5-10 mg/kg
[13] = Toxicity in C57 mouse assessed as effect on spleen size at 5 to 10 mg/kg administered continuously for 2 weeks by H and E staining based analysis; format: organism-based; settings: in vivo, 336 h, dose 5-10 mg/kg
Mus musculus [14] = experiment: Antidepressant activity in reserpine induced depressive mouse model assessed as 5-HT level in brain at 5 mg/kg preadministered with reserpine for 3 days followed by compound addition from day 4 to 10 by LC-MS analysis (reference value: 186.46 ng/ml); format: functional; settings: time 7 day
[15] = Toxicity in C57 mouse assessed as effect on lung morphology at 5 to 10 mg/kg administered continuously for 2 weeks by H and E staining based analysis; format: organism-based; settings: in vivo, 336 h, dose 5-10 mg/kg
[16] = Toxicity in C57 mouse assessed as effect on lung pathology at 5 to 10 mg/kg administered continuously for 2 weeks by H and E staining based analysis; format: organism-based; settings: in vivo, 336 h, dose 5-10 mg/kg
[17] = Toxicity in C57 mouse assessed as effect on spleen structure at 5 to 10 mg/kg administered continuously for 2 weeks by H and E staining based analysis; format: organism-based; settings: in vivo, 336 h, dose 5-10 mg/kg

Compound: O=C1c2ccccc2-c2nccc3cc(OCCCO[N+](=O)[O-])cc1c23
- Activity [1]: Non-Toxic
- IC50 at 24 h [2]: > 100 µM
- Activity (PC-12): Active
- Activity [3]: Non-Toxic
- Activity (Mus musculus [4]): Active
- IC50 at 24 h [5]: > 100 µM
- Activity [6]: Non-Toxic
- Activity [7]: Non-Toxic
- Activity [8]: Non-Toxic
- Activity (Mus musculus [9]): Active
- Activity [10]: Non-Toxic
- Activity (Mus musculus [11]): Active
- Activity (Mus musculus [12]): Active
- Activity [13]: Non-Toxic
- Activity (Mus musculus [14]): 508.39 ng/mL
- Activity [15]: Non-Toxic
- Activity [16]: Non-Toxic
- Activity [17]: Non-Toxic
